From patent US5627270A, “Glycosylated steroid derivatives for transport across biological membranes and process for making and using same” (Trustees of Princeton University, priority 1994, dated 1997)
“Also recorded” adds a separate entry of the source. Read-outs that look alike come from different tables or passages of the source.

Key:
[1] = tested on: DH2 cells (a mutant strain of E. coli K-12); assay type: cell-based; conditions: for EFFECT (enhancement of erythromycin): compound 20 mM; on EFFECT (enhancement of erythromycin): key: --: erythromycin alone at 1.0 mM (baseline) and all lesser effects; +: enhancement relative to baseline; +++: significant enhancement relative to baseline
Crithidia fasciculate [2] = assay: ASSAY IV: efficacy of antifungal agents on protozoa with and without added glycosylated steroid derivatives; assay type: cell-based
[3] = Enhanced transmucosal delivery of co-administered agents in rat ileum or colon; assay type: in vivo
[4] = rat, in vivo
[5] = rat, in vivo; remark: listed apart in the source
[6] = rat, in vivo; remark: listed apart in the source
[7] = rat, in vivo, 100000 uM
[8] = ASSAY I: leakage of carboxyfluorescein from vesicles; assay type: biochemical; conditions: for % increase in Fluorescence: 0.117 mM final concentration; for efficacy in permeabilizing phospholipid membranes: concentrations required for >50% leakage taken as measure
[9] = ASSAY II: proton transport across lipid membranes; assay type: biochemical
Crithidia fasciculate [10] = conditions: antifungal agent alone; cited from earlier work
[11] = Plasma vancomycin after ileal co-administration in the rat
[12] = Plasma calcitonin after ileal co-administration in the rat; conditions: absence of 1
[13] = Plasma gentamicin after ileal co-administration in the rat; conditions: absence of 1

Molecule: COC(=O)CC[C@@H](C)[C@H]1CC[C@H]2[C@@H]3[C@H](O)C[C@@H]4C[C@H](OC(=O)c5ccc(OC)cc5)CC[C@]4(C)[C@H]3C[C@H](O)[C@]12C [CDE, 3α-O-p-methoxybenzoyl-cis-5,10-cholic acid methyl ester, reference compound]
- enhancing effect on erythromycin ([1]; lower concentrations (Table V)): does not function as an enhancer
- enhancement of antifungal efficacy (Crithidia fasciculate [2]; with 24-TC (thiacholestanol)): lack of an enhancing effect; also recorded: not observed to act as an enhancer

Molecule: COC(=O)CC[C@@H](C)[C@H]1CC[C@H]2[C@@H]3[C@H](O[C@H]4O[C@H](CO)[C@@H](O)[C@H](O)[C@H]4O)C[C@@H]4C[C@@H](N)CC[C@]4(C)[C@H]3C[C@H](O[C@H]3O[C@H](CO)[C@@H](O)[C@H](O)[C@H]3O)[C@]12C [Compound 1, 3β-amino-7α,12α-di(1'α-glucosyl)-5β-cholic acid methyl ester]
- plasma levels of co-administered agents [3]: increase the plasma levels of proteinaceous compounds; also recorded: resembled pharmacokinetic profiles of agents administered intravenously
- plasma concentrations of gentamicin versus concentration of 1 [4]: increasing plasma concentrations of the gentamicin
- plasma calcitonin versus amount of 1 [5]: plasma calcitonin levels rise with increasing amounts of 1
- bioavailability of calcitonin ([5]; po): significant amounts of calcitonin are made available with co-administration of 1
- time to almost peak gentamicin levels ([6]; 10000 uM): ≤ 10 min
- ileal bioavailability of gentamicin ([6]; 30000 uM): 19.8%
- peak plasma levels of vancomycin [7]: 15 to 47 µg/mL

Molecule: COC(=O)CC[C@@H](C)[C@H]1CC[C@H]2[C@@H]3[C@H](O[C@H]4O[C@H](CO)[C@@H](O)[C@H](O)[C@H]4O)C[C@@H]4C[C@H](OC(=O)c5ccc(OC)cc5)CC[C@]4(C)[C@H]3C[C@H](O[C@H]3O[C@H](CO)[C@@H](O)[C@H](O)[C@H]3O)[C@]12C [Entry 8, 3α-O-p-methoxybenzoyl-cis-5,10-bis-α,α-7,12-glucosyl cholic acid methyl ester]
- % increase in Fluorescence [8]: 89.1%
- efficacy in permeabilizing phospholipid membranes [8]: the most effective glycosylated steroids tested
- efficacy in permeabilizing phospholipid membranes ([8]; listed as CME): a good membrane permeabilizing agent
- % Decrease in Fluorescence ([9]; 0.00579 mM final concentration): 20.6%
- % Decrease in Fluorescence ([9]; 0.0116 mM final concentration): 32.2%
- EFFECT (clearing) ([1]; compound 0.001 mM, erythromycin 0.01 mM): +
- EFFECT (clearing) ([1]; compound 0.01 mM, erythromycin 0.01 mM): +
- EFFECT (clearing) ([1]; compound 0.1 mM, erythromycin 0.01 mM): +
- EFFECT (clearing) ([1]; compound 0.1 mM, erythromycin 0.1 mM): +
- EFFECT (enhancement of erythromycin) ([1]; erythromycin 0.5 mM): +++
- EFFECT (enhancement of erythromycin) ([1]; erythromycin 1.0 mM): +++
- enhancing effect on erythromycin ([1]; lower concentrations (Table V)): acts as an enhancer at very low concentrations
- enhancing effect on erythromycin ([1]; test compound 20 mM): the best "enhancer" in this assay
- enhancement of antifungal efficacy (Crithidia fasciculate [2]; with 10-TSA (thiastearic acid), listed as CME): enhancing effect; also recorded: enhances the efficacy of 10-TSA dramatically
- enhancement of antifungal efficacy (Crithidia fasciculate [2]; with 24-TC (thiacholestanol), listed as CME): enhancing effect; also recorded: enhance the efficacy of 24-TC

Molecule: CCCCCCCCSCCCCCCCCC(=O)O [Entry 10-TSA, 10-thiastearic acid]
- IC50 (Crithidia fasciculate [10]): 10 µM

Molecule: COC(=O)CC[C@@H](C)[C@H]1CC[C@H]2[C@@H]3[C@H](O[C@H]4O[C@H](CO)[C@@H](O)[C@H](O)[C@H]4O)C[C@H]4C[C@H](OC(=O)c5ccccc5)CC[C@]4(C)[C@H]3C[C@H](O[C@H]3O[C@H](CO)[C@@H](O)[C@H](O)[C@H]3O)[C@]12C [Entry 11, 3α-O-benzoyl-trans-5,10-bis-α,α-7,12-glucosyl cholic acid methyl ester]
- % increase in Fluorescence [8]: 98%
- efficacy in permeabilizing phospholipid membranes [8]: the most effective glycosylated steroids tested
- % Decrease in Fluorescence ([9]; 0.00585 mM final concentration): 14.7%
- % Decrease in Fluorescence ([9]; 0.0116 mM final concentration): 22.0%
- EFFECT (enhancement of erythromycin) ([1]; erythromycin 0.5 mM): +
- EFFECT (enhancement of erythromycin) ([1]; erythromycin 1.0 mM): +

Molecule: CN[C@H](CC(C)C)C(=O)N[C@H]1C(=O)N[C@@H](CC(N)=O)C(=O)N[C@H]2C(=O)N[C@H]3C(=O)N[C@H](C(=O)N[C@H](C(=O)O)c4cc(O)cc(O)c4-c4cc3ccc4O)[C@H](O)c3ccc(c(Cl)c3)Oc3cc2cc(c3O[C@@H]2O[C@H](CO)[C@@H](O)[C@H](O)[C@H]2O[C@H]2C[C@](C)(N)[C@H](O)[C@H](C)O2)Oc2ccc(cc2Cl)[C@H]1O [Vancomycin]
- clearance from the circulation ([11]; ileum versus IV): cleared more slowly from the circulation when administered via the ileum than via IV
- Cmax ([11]; rat, in vivo, 5 mg): 5000 to 10000 ng/mL

Molecule: calcitonin
- plasma calcitonin [12]: no appreciable amounts of calcitonin are found in the blood

Molecule: gentamicin
- ileal bioavailability of gentamicin [13]: 10.7%
- plasma concentrations of gentamicin ([13]; ileal, 5 mg antibiotic): 1000 to 7000 ng/mL
